These results are taken from ChEMBL document CHEMBL1201862, “PubChem BioAssay data set” (2004).

The subject of one assay is Vero. Nature of the assay: cells. As to conditions: Chlorocebus sabaeus. The format is functional, cell-based.
A short description of assay [1]: NIH-3T3 fibroblast cytotoxicity, dose response, cytotoxicity control, cell-based, fluorescence, Alamar Blue, secondary assay (AID 2327).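 Also: NIH-3T3 mouse fibroblasts cultured with fluconazole at 8 µg/mL.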 The format is functional. On the technique in general: Resazurin is reduced to fluorescent resorufin, in cell work by metabolically active cells.
Assay [2] concerns the target Serine/threonine-protein phosphatase (Candida dubliniensis (strain CD36 / CBS 7987 / NCPF 3949 / NRRLY-17841) (Yeast), UniProt B9W6M3). Nature of the assay: calcineurin pathway inhibitors in yeast reporter, dose response, S. cerevisiae, CDRE-lacZ, luminescence, secondary (AID 2388).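 Also: yeast reporter cells carrying a calcineurin-responsive lacZ construct stimulated with calcium chloride; luminescent beta-galactosidase reporter signal in whole cells rather than isolated phosphatase activity; potency for inhibition where a drop in reporter signal means calcineurin blockade.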 In kind it is functional, cell-based.
Assay [3] is described as follows: C. albicans growth with fluconazole, confirmation, fluorescence, retest (AID 2467). In kind it is functional, cell-based.
Assay [4] has as its target ATP-dependent molecular chaperone HSP82 (Candida albicans (strain WO-1) (Yeast), UniProt C4YTQ8). The assay is described as follows: loss of DOC-induced GRE-beta-galactosidase reporter signal, dose response, Hsp90 inhibitor project, S. cerevisiae, luminescence (AID 2400).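 Also: beta-galactosidase luminescence from glucocorticoid response element reporter as proxy for Hsp90 function; inhibitor potency where signal loss means Hsp90 inhibition.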 The format is functional, cell-based.
Assay [5] deals with T1, Nuclear receptor subfamily 0 group B member 1 (Homo sapiens, UniProt P51843).
T1 sequence (P51843 whole entry): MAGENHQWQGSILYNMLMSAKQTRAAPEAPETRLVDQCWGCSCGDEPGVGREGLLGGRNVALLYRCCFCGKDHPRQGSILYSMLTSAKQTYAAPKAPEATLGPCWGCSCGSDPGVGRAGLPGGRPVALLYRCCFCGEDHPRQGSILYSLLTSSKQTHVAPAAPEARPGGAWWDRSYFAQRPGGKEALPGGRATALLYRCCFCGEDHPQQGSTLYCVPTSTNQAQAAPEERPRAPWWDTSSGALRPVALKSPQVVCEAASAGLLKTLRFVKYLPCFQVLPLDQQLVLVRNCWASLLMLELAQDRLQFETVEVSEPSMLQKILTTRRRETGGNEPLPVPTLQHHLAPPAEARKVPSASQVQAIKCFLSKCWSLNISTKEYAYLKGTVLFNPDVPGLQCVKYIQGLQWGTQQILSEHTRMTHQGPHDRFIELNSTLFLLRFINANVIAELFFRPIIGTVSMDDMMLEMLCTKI
The assay is described as follows: Luminescence-based cell-based high throughput dose response assay for inhibitors of the orphan nuclear receptor subfamily 0, group B, member 1 (DAX1; NR0B1). [Related pubchem assays (depositor defined):AID504766, AID504790]. The format is functional.

A further assay has as its system HEK293. The assay is described as follows: cells. To be noted: Homo sapiens. In kind it is functional, cell-based.
The target in assay [6] is T2, Microphthalmia-associated transcription factor (Homo sapiens, UniProt O75030).
T2 sequence (O75030 whole entry): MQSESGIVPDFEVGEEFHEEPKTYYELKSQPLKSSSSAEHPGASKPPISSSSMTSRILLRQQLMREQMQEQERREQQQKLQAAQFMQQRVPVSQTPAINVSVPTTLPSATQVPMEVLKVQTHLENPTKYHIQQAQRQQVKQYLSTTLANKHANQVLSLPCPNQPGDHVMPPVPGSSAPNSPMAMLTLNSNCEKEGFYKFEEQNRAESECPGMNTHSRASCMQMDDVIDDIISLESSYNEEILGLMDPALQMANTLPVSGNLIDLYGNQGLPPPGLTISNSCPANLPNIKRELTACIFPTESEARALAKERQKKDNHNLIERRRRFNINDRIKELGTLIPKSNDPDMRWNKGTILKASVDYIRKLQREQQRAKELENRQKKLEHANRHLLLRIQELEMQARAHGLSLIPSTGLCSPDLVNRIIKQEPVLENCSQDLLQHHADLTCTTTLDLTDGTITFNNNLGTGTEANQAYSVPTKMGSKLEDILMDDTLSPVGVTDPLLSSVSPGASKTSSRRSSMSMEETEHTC
Nature of the assay: TRPM1 promoter luciferase signal decrease, dose response, MITF inhibitor project, cell-based, SK-MEL-5, cherry-picked, set 3 (AID 493073).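 Also: SK-MEL-5 melanoma cells with luciferase driven by the MITF target TRPM1 promoter.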 In kind it is functional.

Assay [7] deals with A-375. The assay is described as follows: A375 melanoma cell viability reduction, dose response, counter-screen for MITF modulator project, cherry-pick samples, set 2 (AID 540335). In kind it is functional, cell-based. To be noted: Homo sapiens. In general terms: The purpose of a counterscreen is to sort out artefacts and off-target activity.
Assay [8] has as its target T3, Endoribonuclease toxin MazF (Escherichia coli K-12, UniProt P0AE70).
T3 sequence (P0AE70 whole entry): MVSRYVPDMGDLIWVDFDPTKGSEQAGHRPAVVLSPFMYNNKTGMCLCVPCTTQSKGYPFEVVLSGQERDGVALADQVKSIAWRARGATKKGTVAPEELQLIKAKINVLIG
Nature of the assay: fluorescent RNA oligo signal without MazF, dose response, counter-screen for MazEF activator project, biochemical, fluorescence, single-stranded RNase substrate (AID 588502). In kind it is functional.

In assay [9] the test system is A-375. Nature of the assay: MITF: Counter assay: A375 proliferation Measured in Cell-Based System Using Plate Reader - 2084-03_Inhibitor_Dose_DryPowder_Activity. [Related pubchem assays (depositor defined):AID488944]. In kind it is functional. To be noted: Homo sapiens.
Assay [10] concerns the target T3, Endoribonuclease toxin MazF. Nature of the assay: MazF toxin RNase activators, dose response, biochemical, fluorescence, single-stranded RNA substrate, uHTS hits (AID 588481). In kind it is functional.
A further assay relates to CHO. Nature of the assay: cytotoxicity in TLR9-MyD88 CHO cells, dose response, cytotoxicity control for TLR9-MyD88 binding inhibitor project, cell-based, luminescence (AID 588339).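 Also: CHO cells stably coexpressing TLR9 and MyD88 fusions from primary screen; compound exposure lasted 48 hours before viability readout.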 The format is functional, hamster. As to conditions: Cricetulus griseus.
The target in the next assay is Beta Lactamase (Pseudomonas aeruginosa, UniProt Q932Y6). The assay is described as follows: beta-lactamase reporter inhibitor potency, dose response, artefact control for TLR9-MyD88 binding inhibitor project, BLA reporter cells, FRET fluorescence (AID 588341).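 Also: cell based assay in CHO-K1 cells stably expressing beta-lactamase.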 The format is cell-based.
Chain of Beta Lactamase (Q932Y6 whole entry): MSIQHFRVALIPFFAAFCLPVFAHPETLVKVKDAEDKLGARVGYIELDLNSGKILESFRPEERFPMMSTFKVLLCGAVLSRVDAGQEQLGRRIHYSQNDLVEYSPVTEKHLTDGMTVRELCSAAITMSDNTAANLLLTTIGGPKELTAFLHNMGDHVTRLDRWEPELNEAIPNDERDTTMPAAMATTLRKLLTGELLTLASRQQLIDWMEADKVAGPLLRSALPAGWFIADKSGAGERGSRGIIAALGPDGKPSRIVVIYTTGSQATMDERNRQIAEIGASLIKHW
Assay [11] can be described thus: growth suppression of PTEN-null colon cells, dose response, cell-based, HCT116 PTEN knockout (AID 1047).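 Also: HCT116 colon tumor cells with PTEN knocked out; cells exposed to compound for 60 hours before readout; potency for loss of cell viability measured by luminescence.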 The format is functional.
The target in the next assay is Beta-galactosidase (Escherichia coli, UniProt Q8VNN2). Nature of the assay: PubChem AID 485352. The format is functional.
Chain of Beta-galactosidase (Q8VNN2 whole entry): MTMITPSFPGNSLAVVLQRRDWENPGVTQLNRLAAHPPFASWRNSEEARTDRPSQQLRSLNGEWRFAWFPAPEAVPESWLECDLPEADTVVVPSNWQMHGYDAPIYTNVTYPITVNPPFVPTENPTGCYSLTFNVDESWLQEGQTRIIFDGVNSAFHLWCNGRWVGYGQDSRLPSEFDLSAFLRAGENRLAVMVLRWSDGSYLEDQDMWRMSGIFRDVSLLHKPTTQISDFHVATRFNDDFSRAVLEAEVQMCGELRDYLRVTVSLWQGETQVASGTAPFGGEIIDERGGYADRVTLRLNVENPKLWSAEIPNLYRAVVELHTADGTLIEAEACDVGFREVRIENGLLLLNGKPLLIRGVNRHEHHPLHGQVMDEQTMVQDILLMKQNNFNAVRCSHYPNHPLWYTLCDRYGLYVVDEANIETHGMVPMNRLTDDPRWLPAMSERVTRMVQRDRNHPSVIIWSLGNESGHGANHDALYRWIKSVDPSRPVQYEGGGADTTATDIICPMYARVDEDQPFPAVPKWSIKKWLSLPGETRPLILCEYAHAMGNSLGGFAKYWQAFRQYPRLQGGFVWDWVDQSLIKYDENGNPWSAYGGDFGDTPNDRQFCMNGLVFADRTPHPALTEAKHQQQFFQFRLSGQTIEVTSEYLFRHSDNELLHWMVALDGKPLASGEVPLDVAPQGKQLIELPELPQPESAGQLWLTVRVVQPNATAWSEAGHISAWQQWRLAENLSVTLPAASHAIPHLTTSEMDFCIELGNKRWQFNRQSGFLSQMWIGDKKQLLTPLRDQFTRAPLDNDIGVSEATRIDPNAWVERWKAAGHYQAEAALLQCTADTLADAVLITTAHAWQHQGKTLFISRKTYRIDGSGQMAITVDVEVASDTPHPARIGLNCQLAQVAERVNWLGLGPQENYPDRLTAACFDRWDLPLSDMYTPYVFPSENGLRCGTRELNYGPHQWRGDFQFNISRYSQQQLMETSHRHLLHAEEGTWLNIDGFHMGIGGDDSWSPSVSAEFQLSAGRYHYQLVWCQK
Assay [12] can be described thus: growth suppression of beta-catenin-knockout colon cells, dose response, cell-based, HCT116, human colon tumor (AID 1045).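 Also: HCT116 colon tumor cells with beta catenin knocked out; cells exposed to compound for 60 hours.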 The format is functional.
For assay [13], the target named is Type-1 angiotensin II receptor (Homo sapiens, UniProt P30556). Nature of the assay: AT1 receptor antagonists, dose response, selectivity assay for APJ receptor antagonist project, cell-based, uHTS hits (AID 463214).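 Also: antagonist potency against angiotensin II stimulated AT1 response.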 The format is functional.
Chain of Type-1 angiotensin II receptor (P30556 whole entry): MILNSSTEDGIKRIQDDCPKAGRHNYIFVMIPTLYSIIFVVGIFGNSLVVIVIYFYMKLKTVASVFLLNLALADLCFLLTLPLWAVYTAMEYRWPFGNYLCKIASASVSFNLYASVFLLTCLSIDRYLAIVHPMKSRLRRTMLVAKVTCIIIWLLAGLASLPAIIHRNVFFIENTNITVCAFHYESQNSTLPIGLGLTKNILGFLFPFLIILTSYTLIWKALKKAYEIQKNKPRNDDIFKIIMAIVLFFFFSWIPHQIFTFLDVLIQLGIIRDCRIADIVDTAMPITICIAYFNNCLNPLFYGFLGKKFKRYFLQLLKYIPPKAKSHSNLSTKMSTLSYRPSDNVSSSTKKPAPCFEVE
Assay [14] can be described thus: inhibitors of SNCA 5'UTR-driven reporter translation, confirmation, H4 neuroglioma cells, luminescence (AID 1988). The format is functional, cell-based.
Assay [15] is described as follows: Luminescence Cell-Based Dose Response HTS to Identify Inhibitors of 5'UTR Stem-Loop Driven Prion Protein mRNA Translation in H4 Neuroglioblastoma Cells. [Related pubchem assays: 1827 (Project Summary), 1813 (Primary HTS)]. In kind it is functional.
The nature of assay [16]: inhibitors of firefly luciferase expression or activity, dose response, H4 neuroglioma cells, luminescence (AID 1990). In kind it is functional, cell-based.

SMILES strings stand for the structures. Calls of active or inactive are those of the source.

Chain of ATP-dependent molecular chaperone HSP82 (C4YTQ8 whole entry): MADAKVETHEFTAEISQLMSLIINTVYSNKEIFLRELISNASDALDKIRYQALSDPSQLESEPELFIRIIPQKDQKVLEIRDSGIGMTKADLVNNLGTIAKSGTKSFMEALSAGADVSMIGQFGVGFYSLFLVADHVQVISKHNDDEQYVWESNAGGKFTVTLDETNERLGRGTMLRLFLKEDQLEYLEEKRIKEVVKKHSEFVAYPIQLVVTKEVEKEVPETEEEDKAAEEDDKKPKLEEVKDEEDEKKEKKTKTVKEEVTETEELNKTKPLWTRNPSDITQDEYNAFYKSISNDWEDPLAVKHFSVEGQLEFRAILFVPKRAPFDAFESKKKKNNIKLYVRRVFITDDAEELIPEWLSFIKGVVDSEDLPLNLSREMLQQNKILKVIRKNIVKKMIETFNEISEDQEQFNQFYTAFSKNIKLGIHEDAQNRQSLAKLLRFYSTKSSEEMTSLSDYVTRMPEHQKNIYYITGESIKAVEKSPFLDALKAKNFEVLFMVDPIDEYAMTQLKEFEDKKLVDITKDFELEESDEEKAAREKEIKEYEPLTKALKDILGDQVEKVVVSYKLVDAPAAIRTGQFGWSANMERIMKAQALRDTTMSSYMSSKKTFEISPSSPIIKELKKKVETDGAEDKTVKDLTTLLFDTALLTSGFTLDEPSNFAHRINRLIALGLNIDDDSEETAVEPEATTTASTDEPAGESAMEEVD
Chain of Serine/threonine-protein phosphatase (B9W6M3 whole entry): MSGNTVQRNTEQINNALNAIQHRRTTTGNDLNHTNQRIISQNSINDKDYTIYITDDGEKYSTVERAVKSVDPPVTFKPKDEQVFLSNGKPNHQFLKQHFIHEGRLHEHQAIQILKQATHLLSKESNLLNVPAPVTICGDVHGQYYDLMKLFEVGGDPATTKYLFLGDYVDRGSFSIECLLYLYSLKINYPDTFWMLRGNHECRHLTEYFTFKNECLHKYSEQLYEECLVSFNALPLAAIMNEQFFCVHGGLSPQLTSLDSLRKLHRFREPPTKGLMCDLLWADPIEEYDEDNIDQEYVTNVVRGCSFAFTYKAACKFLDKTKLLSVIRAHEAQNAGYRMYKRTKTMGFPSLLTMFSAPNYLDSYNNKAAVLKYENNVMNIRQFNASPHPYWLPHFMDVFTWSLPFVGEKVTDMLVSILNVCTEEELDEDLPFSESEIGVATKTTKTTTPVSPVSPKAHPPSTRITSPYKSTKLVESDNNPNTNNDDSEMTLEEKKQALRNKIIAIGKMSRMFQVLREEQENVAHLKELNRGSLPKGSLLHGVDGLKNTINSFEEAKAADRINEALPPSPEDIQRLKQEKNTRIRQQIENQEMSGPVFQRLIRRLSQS

Regarding `COc1cccc2sc(N(CCCN(C)C)C(=O)c3ccc(S(=O)(=O)N4CCCc5ccccc54)cc3)nc12`, the IC50 (as a rule, the midpoint of a concentration-inhibition curve) in the assay on Vero is 24.6 µM (active).
Consider `CC(C)Cc1nc2oc3c(O)ncnc3c2c2c1CCCC2`, for which the EC50 (usually the concentration giving half of the maximal effect) was > 160 µM (inactive) in [1], > 180 µM (inactive) in [2], 0.891 µM (active) in assay [3] and > 150 µM (inactive) in assay [4].
For the compound `CCCCNc1cc(=O)n(C)c(=O)[nH]1`, the IC50 (in [5]; in the assay with HEK293) was > 67.5 µM (inactive) throughout.
Consider `N=c1n(CC(=O)c2ccc([N+](=O)[O-])cc2)c2ccccc2n1Cc1ccccc1`, for which the AC50 (usually the concentration at which the activity in the assay is half-maximal) in assay [6] is 4.83 µM (active); in the assay on A-375 [7] it was > 11 µM (active); in the assay with A-375 [9], > 11 µM (active). Further, the EC50 in assay [8] and in assay [10] was > 99 µM (inactive) in each case.
As for `O=C(NCc1ccco1)c1cccc2c1C(=O)c1ccc(N3CCC(Cc4ccccc4)CC3)cc1S2(=O)=O`, the IC50 with CHO is > 49.8 µM (inactive); at Beta Lactamase, 4.4 µM (active).
On to `COc1ccc(NS(=O)(=O)c2cc([N+](=O)[O-])ccc2N/N=C\c2c(C)[nH]c3ccccc23)cc1`, for which the EC50 is 17.6 µM (active) in assay [11], > 40 µM (inactive) on Beta-galactosidase and 19.9 µM (active) in assay [12]. For the same compound, in [13], the IC50 is reported as > 40 µM (not active).
Regarding `O=C(O)c1ccc(N/N=C/C2=Cc3ccccc3OC2)cc1`, the IC50 (in assay [5]; in the assay on HEK293) was > 67.6 µM (inactive) each time.
Take `CC1CC2(C)Oc3ccccc3CC2C(C)C1CNCCCN(C)C` (centres undefined): the EC50 in [14], in [15] and in assay [16] was > 120 µM (not active) in each case. Further, the AC50 in the assay on A-375 [9] was 29.8 µM (active).
